Where a chain is given by its changes, count along the chain named. Entries after “also recorded” stand apart in the source; their conditions may differ. Where two headings read alike, the source gives them in different places.
Experiments:
[1] = cited from earlier work
[2] = tested on: aldehyde oxidase (AOX); settings: rat liver cytosol, mean ± SEM, estimate, saturation incomplete
[3] = target: T1, human AOX1 I1085A (Homo sapiens, UniProt Q06278, I1085A); experiment: Methotrexate hydroxylation by purified recombinant human AOX1 I1085A mutant; type: in vitro ADME; settings: I1085A single mutant, Figure 5
T1 sequence (Q06278 1-1338 I1085A): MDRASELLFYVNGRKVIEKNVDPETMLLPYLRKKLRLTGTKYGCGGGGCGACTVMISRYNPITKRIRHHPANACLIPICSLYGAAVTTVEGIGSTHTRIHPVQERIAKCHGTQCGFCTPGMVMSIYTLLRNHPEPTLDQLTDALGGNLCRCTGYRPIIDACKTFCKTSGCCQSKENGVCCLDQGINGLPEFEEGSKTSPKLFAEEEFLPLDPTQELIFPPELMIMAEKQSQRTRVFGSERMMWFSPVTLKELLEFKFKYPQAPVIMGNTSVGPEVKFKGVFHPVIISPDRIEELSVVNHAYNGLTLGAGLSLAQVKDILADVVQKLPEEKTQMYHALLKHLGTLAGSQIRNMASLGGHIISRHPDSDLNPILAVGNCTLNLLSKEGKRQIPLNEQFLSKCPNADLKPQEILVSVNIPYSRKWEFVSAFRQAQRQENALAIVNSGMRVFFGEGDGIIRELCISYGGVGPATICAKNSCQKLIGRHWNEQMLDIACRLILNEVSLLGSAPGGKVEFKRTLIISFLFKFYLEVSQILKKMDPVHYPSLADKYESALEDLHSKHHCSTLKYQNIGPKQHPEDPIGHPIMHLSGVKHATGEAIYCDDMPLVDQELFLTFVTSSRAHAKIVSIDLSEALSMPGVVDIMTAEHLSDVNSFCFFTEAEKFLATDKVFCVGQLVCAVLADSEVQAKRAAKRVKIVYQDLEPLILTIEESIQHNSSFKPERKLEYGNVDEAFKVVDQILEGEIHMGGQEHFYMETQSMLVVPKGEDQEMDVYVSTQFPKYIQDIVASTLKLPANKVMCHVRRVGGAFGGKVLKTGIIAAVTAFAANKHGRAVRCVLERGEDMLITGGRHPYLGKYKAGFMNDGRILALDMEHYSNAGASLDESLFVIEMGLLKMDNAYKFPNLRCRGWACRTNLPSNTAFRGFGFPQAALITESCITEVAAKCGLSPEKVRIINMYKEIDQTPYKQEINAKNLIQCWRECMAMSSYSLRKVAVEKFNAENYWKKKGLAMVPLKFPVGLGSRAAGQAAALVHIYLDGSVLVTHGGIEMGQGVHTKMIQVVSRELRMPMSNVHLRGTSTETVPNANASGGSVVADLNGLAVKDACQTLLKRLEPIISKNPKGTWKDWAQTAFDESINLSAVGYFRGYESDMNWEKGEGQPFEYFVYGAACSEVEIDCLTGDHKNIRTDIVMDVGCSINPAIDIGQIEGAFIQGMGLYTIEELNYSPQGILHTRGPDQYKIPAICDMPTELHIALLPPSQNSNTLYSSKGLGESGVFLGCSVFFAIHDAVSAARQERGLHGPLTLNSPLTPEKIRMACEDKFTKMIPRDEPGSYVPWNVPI

[4] = target: T2, AOX1 (Homo sapiens, UniProt Q06278); settings: human liver cytosol
T2 sequence (Q06278 1-1338): T1 sequence (Q06278 1-1338 I1085A) with A1085I

In the case of `CN(Cc1cnc2nc(N)nc(N)c2n1)c1ccc(C(=O)N[C@@H](CCC(=O)O)C(=O)O)cc1` [Methotrexate, 4-amino-N^1^0-methylpteroglutamic acid], the 7-hydroxymethotrexate in vivo ([1]; conventional dose levels of methotrexate in primates) is given as “not detected”, the “Parent compound excreted as 7-hydroxymethotrexate” value ([1]; high dose (> 50 mg methotrexate/kg) therapy regimes) is given as at most 33% and the Vmax [2] is given as 50 ± 3 pmol/min/mg. The Vmax ([2]; listed as methotrexate) was 40 to 70 pmol/min/mg, the “Km / affinity vs wild type” value [3] was “lower Km and higher affinity; also recorded: Km that was similar to cytosolic AOX from rabbit liver” and the “Methotrexate hydroxylation activity vs wild type” value [3] was “slightly higher activity compared to the wild type”. For the same molecule, the “kcat (Vmax/[AOX1])” value ([4]; calculated from Vmax and AOX1 level (figure 1A)) was 0.04 s⁻¹ and the “In vitro CLint AOX1” value ([4]; from specific activity and Km) was 0.9 min^− 1mM^−1.

Source: PMC4574636 (Biochemical pharmacology, 2015)
